From US11617796B2, “Conjugate of minoxidil and peptide” (CAREGEN CO., LTD., priority 2016, dated 2023)
Where no end group is shown, it is not given here.

Columns and labels:
[1] = system: VEGF; assay: VEGF mRNA amount by RT-PCR in HUVECs; type: cell-based, human; conditions: 5 and 50 uM, 24 hours, compared with Minoxidil, FIGS. 4 to 6
Method: (§1) VEGF was expressed by HUVECs and TGFβ1 was expressed by hair follicle dermal papilla cells. Two cells were placed in each 6-well plate at a rate of 1×10^3 cells/well. After 24 hours of incubation in a CO2 incubator, the medium was replaced with serum-free DMEM medium. Three compounds of the present invention and Minoxidil were added to the cells at 5 uM and 50 uM concentration, respectively, and incubated for 24 hours. After incubated cells were harvested, RNA was extracted using an RNA extraction kit and RT-PCR was performed to confirm the degree of expression of VEGF and TGFβ1.

[2] = system: phospho-Smad1/5/8; assay: Translocation of phospho-Smad1/5/8 to nucleus in the presence of BMP2 (Western blotting); type: cell-based; conditions: in the presence of BMP2, 5 and 50 uM, compared with Minoxidil; FIGS. 12 and 13
Method: (§2) Hair follicle dermal papilla cells were placed in each well of a 6-well plate at 1×10^3 cells/well. Incubation was performed in a CO2 incubator for 24 hours. After replacing the medium with serum-free DMEM medium, the Minoxidil, the Minoxidil-WINT, and the WINT were added respectively to the cells at a concentration of 5 uM and 50 uM, and then incubated for 24 hours. Protein was extracted using a protein extraction kit (extraction of each of the nuclear/cytoplasmic protein). Western blotting was carried out in the same manner as in Example 3-2 except that an anti-beta-catenin antibody, an anti-HDAC antibody, an anti-alpha tubulin antibody as primary antibodies were used.
The experiment was carried out in the same manner as in Example 5, except that in the presence of BMP2, the Minoxidil-Nokkin is used instead of the Minoxidil-WINT, and an anti-P-Smad1/5/8 antibody and an anti-HDAC1 antibody were used as primary antibodies.

[3] = system: TGFβ1; assay: TGFβ1 mRNA amount by RT-PCR in hair follicle dermal papilla cells; type: cell-based, human; conditions: 5 and 50 uM, 24 hours, compared with Minoxidil, FIGS. 4 to 6
Method: as §1

[4] = system: β-catenin; assay: Translocation of β-catenin to nucleus in hair follicle dermal papilla cells (Western blotting); type: cell-based; conditions: 5 and 50 uM, 24 hours, same concentration; FIG. 10
Method: as §2, with “After replacing the medium with serum-free DMEM medium, the Minoxidil, the Minoxidil-WINT, and the WINT were added respectively to the cells at a concentration of 5 uM and 50 uM, and then incubated for 24 hours.” left out

Q: What does the source list for “Minoxidil-Nokkin: Minoxidil chemically conjugated to Nokkin peptide of SEQ ID NO: 1 (ELIEHGGGRPAD) (also: minoxidil conjugate, attachment site not given here)”?
A: expression of VEGF (mRNA) [1]: significantly higher than that of Minoxidil; delivery of P-Smad1/5/8 into the nucleus [2]: reduced as compared to the treatment with the Minoxidil; expression of TGFβ1 (mRNA) [3]: significantly lower than that of the Minoxidil

Q: With `Nc1cc(N2CCCCC2)nc(N)[n+]1[O-]` [Minoxidil] as the compound, how does the “degree of translocation of β-catenin to the nucleus” value [4] read?
A: significantly lower degree of translocation of β-catenin to the nucleus
